Measured values reported in patent publication US12378208B2, “N-substituted oseltamivir derivatives with antimicrobial activity” (THE HONG KONG POLYTECHNIC UNIVERSITY, priority 2019, dated 2025).

Legend:
[1] = test system: oseltamivir-resistant strain 11v17178; test: Plaque assay in MDCK cells; assay type: cell-based, influenza A virus (H1N1 pandemic)
[2] = test system: oseltamivir-resistant strain 09v71923; test: Plaque assay in MDCK cells; assay type: cell-based, influenza A virus (H1N1 pandemic)
[3] = day 3, vs DMSO vehicle, two concentrations

Question: For `CCC(CC)O[C@@H]1C=C(C(=O)O)C[C@H](NCc2noc(-c3ccco3)n2)[C@H]1NC(C)=O` [Compound S7, (3R,4R,5S)-4-acetamido-5-(((5-(furan-2-yl)-1,2,4-oxadiazol-3-yl)methyl)amino)-3-(pentan-3-yloxy)cyclohex-1-ene-1-carboxylic acid], which plaque size [1, 3] is on record?
Answer: No inhibition effect

Question: What about the plaque size [2, 3] of the same compound?
Answer: No inhibition effect

Question: Which results are given for `CCOC(=O)C1=C[C@@H](OC(CC)CC)[C@H](NC(C)=O)[C@@H](N)C1` [oseltamivir]?
Answer: plaque size ([1]; 0.1 nM oseltamivir, day 3): significant reduction; plaque size ([2]; 0.2 nM oseltamivir, day 3): larger plaque size; plaque size [2, 3]: could not reduce the plaque size

Question: What does the source list for `CCC(CC)O[C@@H]1C=C(C(=O)O)C[C@H](NCc2ccc(-c3c(C)noc3C)o2)[C@H]1NC(C)=O` [Compound S22, (3R,4R,5S)-4-acetamido-5-(((5-(3,5-dimethylisoxazol-4-yl)furan-2-yl)methyl)amino)-3-(pentan-3-yloxy)cyclohex-1-ene-1-carboxylic acid]?
Answer: plaque size [1, 3]: No inhibition effect; plaque size [2, 3]: No inhibition effect
